Values after ≈ are worked out from the molar mass of the structure shown.
Test system: MRSA, CA-MRSA and MSSA of Staphylococcus aureus
Test: MIC measurement, Test Example 4 (MRSA, CA-MRSA and MSSA strains)
Type: cell-based
Details: for MIC: Staphylococcus aureus
Experimental: Each of the bacterial strains listed in Table 1-1 was shake-cultured at 37° C. overnight in 4 mL of a medium (Tryptical Soy Broth: TSB, product of Becton Dickinson and Company). FDA209P was used as a control.
After completion of culturing, the resultant culture was suspended in a cation-adjusted Mueller Hinton Broth (CAMHB, product of Becton Dickinson and Company). Then, the obtained bacterial culture was adjusted in absorbance with the CAMHB so that the absorbance at 578 nm of the bacterial culture was adjusted to 0.3 measured by an absorption spectrometer. In addition, the resultant bacterial culture was 500-fold diluted with the CAMHB.
Each of the 500-fold diluted, pre-cultured bacterial cultures was added at 50 μL/well to the CAMHB containing the quinolones and the nybomycins at various concentrations (50 μL/well), followed by statically culturing at 37° C. overnight.
After completion of culturing, the growth of the bacteria was visually determined based on turbidity to measure MIC in each bacterial strain.
Glycopeptides, imipenem, quinolones and nybomycins were studied for antibacterial activity against the bacterial strains listed in Table 2-1; i.e., MRSA, CA-MRSA and MSSA of Staphylococcus aureus.

[1] = ATCC 29213 / MRSA / MSSA, ATCC 29213, MSSA
[2] = FDA209P / MRSA / MSSA, FDA209P, MSSA
[3] = MRSA / MSSA / NCTC 8325, NCTC 8325, MSSA
[4] = MRSA / MSSA / USA300, USA300 FPR3757, CA-MRSA

Row | Compound | MIC [1] | MIC (COL, MRSA) | MIC [2] | MIC (ISA12-1, MRSA) | MIC (ISA12-2, MRSA) | MIC (ISA35-1, MRSA) | MIC (ISA37-1, MSSA) | MIC (ISA49-1, MSSA) | MIC (ISA51-1, MSSA) | MIC (ISA56-3, MRSA) | MIC (ISA58-1, MRSA) | MIC (ISA62-1, MRSA) | MIC (ISA73-1, MSSA) | MIC (KBSA32, MRSA) | MIC (KBSA34, MRSA) | MIC (KBSA72, MRSA) | MIC (KBSA96, MRSA) | MIC (KBSA171, MRSA) | MIC (KSA24, MRSA) | MIC (KSA31, MRSA) | also measured
1 | Cc1cc(=O)n(C)c2c3c4c(cc12)c(C)cc(=O)n4CO3 [DNM, deoxynybomycin] | 16 µg/mL (≈ 56.7 µM) | > 64 µg/mL | 8 µg/mL (≈ 28.3 µM) | 32 µg/mL (≈ 113 µM) | 16 µg/mL (≈ 56.7 µM) | 64 µg/mL (≈ 227 µM) | > 64 µg/mL | 16 µg/mL (≈ 56.7 µM) | 8 µg/mL (≈ 28.3 µM) | > 64 µg/mL | 8 µg/mL (≈ 28.3 µM) | > 64 µg/mL | > 64 µg/mL | 32 µg/mL (≈ 113 µM) | > 64 µg/mL | ≤ 0.063 µg/mL | ≤ 0.063 µg/mL | ≤ 0.063 µg/mL | 0.125 µg/mL (≈ 0.443 µM) | 0.25 µg/mL (≈ 0.886 µM) | MIC (KSA36, MRSA): ≤ 0.063 µg/mL; MIC [3]: > 64 µg/mL; MIC [4]: 0.125 µg/mL (≈ 0.443 µM); MIC (MW2, CA-MRSA): 64 µg/mL (≈ 227 µM); MIC (N315, MRSA): 32 µg/mL (≈ 113 µM); antibacterial activity, comparison between NM and DNM (against Staphylococcus aureus): higher than that of NM
2 | C[C@H]1COc2c(N3CCN(C)CC3)c(F)cc3c(=O)c(C(=O)O)cn1c23 [LVFX, levofloxacin] | 0.125 µg/mL (≈ 0.346 µM) | 0.5 µg/mL (≈ 1.38 µM) | ≤ 0.063 µg/mL | 0.25 µg/mL (≈ 0.692 µM) | 0.25 µg/mL (≈ 0.692 µM) | 1 µg/mL (≈ 2.77 µM) | 0.25 µg/mL (≈ 0.692 µM) | 0.25 µg/mL (≈ 0.692 µM) | 0.25 µg/mL (≈ 0.692 µM) | 0.25 µg/mL (≈ 0.692 µM) | 0.5 µg/mL (≈ 1.38 µM) | 0.25 µg/mL (≈ 0.692 µM) | 0.125 µg/mL (≈ 0.346 µM) | 0.125 µg/mL (≈ 0.346 µM) | 0.25 µg/mL (≈ 0.692 µM) | > 128 µg/mL | 8 µg/mL (≈ 22.1 µM) | 16 µg/mL (≈ 44.3 µM) | 8 µg/mL (≈ 22.1 µM) | 4 µg/mL (≈ 11.1 µM) | MIC (KSA36, MRSA): > 128 µg/mL; MIC [3]: 0.25 µg/mL (≈ 0.692 µM); MIC [4]: 32 µg/mL (≈ 88.6 µM); MIC (MW2, CA-MRSA): 0.125 µg/mL (≈ 0.346 µM); MIC (N315, MRSA): 0.125 µg/mL (≈ 0.346 µM)
3 | CCn1cc(C(=O)O)c(=O)c2cc(F)c(N3CCNCC3)cc21 [NFLX, norfloxacin] | 1 µg/mL (≈ 3.13 µM) | 1 µg/mL (≈ 3.13 µM) | 0.25 µg/mL (≈ 0.783 µM) | 1 µg/mL (≈ 3.13 µM) | 1 µg/mL (≈ 3.13 µM) | 16 µg/mL (≈ 50.1 µM) | 1 µg/mL (≈ 3.13 µM) | 1 µg/mL (≈ 3.13 µM) | 0.5 µg/mL (≈ 1.57 µM) | 0.25 µg/mL (≈ 0.783 µM) | 1 µg/mL (≈ 3.13 µM) | 1 µg/mL (≈ 3.13 µM) | 1 µg/mL (≈ 3.13 µM) | 0.5 µg/mL (≈ 1.57 µM) | 1 µg/mL (≈ 3.13 µM) | > 128 µg/mL | 128 µg/mL (≈ 401 µM) | > 128 µg/mL | 128 µg/mL (≈ 401 µM) | 32 µg/mL (≈ 100 µM) | MIC (KSA36, MRSA): > 128 µg/mL; MIC [3]: 1 µg/mL (≈ 3.13 µM); MIC [4]: 32 µg/mL (≈ 100 µM); MIC (MW2, CA-MRSA): 0.5 µg/mL (≈ 1.57 µM); MIC (N315, MRSA): 1 µg/mL (≈ 3.13 µM)
4 | Cc1cc(=O)n2c3c(c4c(cc13)c(CO)cc(=O)n4C)OC2 [NM, nybomycin] | 64 µg/mL (≈ 215 µM) | > 64 µg/mL | 64 µg/mL (≈ 215 µM) | > 64 µg/mL | > 64 µg/mL | > 64 µg/mL | > 64 µg/mL | > 64 µg/mL | > 64 µg/mL | > 64 µg/mL | 16 µg/mL (≈ 53.6 µM) | > 64 µg/mL | > 64 µg/mL | > 64 µg/mL | > 64 µg/mL | ≤ 0.063 µg/mL | 0.125 µg/mL (≈ 0.419 µM) | 0.25 µg/mL (≈ 0.838 µM) | 0.5 µg/mL (≈ 1.68 µM) | 1 µg/mL (≈ 3.35 µM) | MIC (KSA36, MRSA): ≤ 0.063 µg/mL; MIC [3]: > 64 µg/mL; MIC [4]: 0.25 µg/mL (≈ 0.838 µM); MIC (MW2, CA-MRSA): 64 µg/mL (≈ 215 µM); MIC (N315, MRSA): 64 µg/mL (≈ 215 µM)

Reference: patent US20120258980A1, “Antibacterial Agent for Drug-Resistant Bacteria, Method for Screening for Same, and Use of Same” (priority 2009, published 2012)
